# Assay results: US12060347B2 (BRISTOL-MYERS SQUIBB COMPANY, priority 2016, dated 2024)
# Molecular target: T1, human PAR4 (Homo sapiens, UniProt Q96RI0)
# T1 construct: expressed in transfected cells; host or cells: HEK293 PAR4 Clone 1.2A (BMS Arctic ID 383940)
# T1 sequence (Q96RI0 18-385): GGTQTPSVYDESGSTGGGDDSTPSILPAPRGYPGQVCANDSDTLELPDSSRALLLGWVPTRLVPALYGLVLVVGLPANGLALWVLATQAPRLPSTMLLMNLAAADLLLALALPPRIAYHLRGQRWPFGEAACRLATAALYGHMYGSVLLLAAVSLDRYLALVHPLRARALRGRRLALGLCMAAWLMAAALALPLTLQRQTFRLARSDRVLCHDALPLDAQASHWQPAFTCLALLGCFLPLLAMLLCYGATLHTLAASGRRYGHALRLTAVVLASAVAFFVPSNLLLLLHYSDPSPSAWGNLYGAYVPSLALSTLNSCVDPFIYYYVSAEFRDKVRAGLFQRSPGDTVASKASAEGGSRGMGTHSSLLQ
# Assay: PAR4 FLIPR assay: antagonism of agonist-peptide-induced calcium mobilization in PAR4-expressing HEK293 cells
# Assay type: cell-based
# Settings: H-Ala-Phe(4-F)-[…]NH2-induced intracellular calcium mobilization, 11-point curves
row,SMILES,IC50
1,"Cc1cc(-c2nc3cc(F)c(O[C@@H](C)[C@@H](C)OC(=O)Nc4cnc(C)nc4)cc3s2)c2ncc(C(=O)N(C)C)nc2c1 [Example 615, (2R,3S)-3-((2-(2-(dimethylcarbamoyl)-7-methylquinoxalin-5-yl)-5-fluorobenzo[d]thiazol-6-yl)oxy)butan-2-yl (2-methylpyrimidin-5-yl)carbamate]",870 nM
2,"Cc1cc(-c2nc3cc(F)c(O[C@@H](C)[C@@H](C)OC(=O)Nc4cnc(C)nc4)cc3s2)c2ncc(C(=O)NCCO)nc2c1 [Example 616, (2R,3S)-3-((5-fluoro-2-(2-((2-hydroxyethyl)carbamoyl)-7-methylquinoxalin-5-yl)benzo[d]thiazol-6-yl)oxy)butan-2-yl (2-methylpyrimidin-5-yl)carbamate]",4200 nM
3,"COc1cnc2c(-c3nc4c(Cl)c(F)c(OCCOC(=O)Nc5ccns5)cc4s3)cc(C)cc2n1 [Example 621, 2-((4-chloro-5-fluoro-2-(2-methoxy-7-methylquinoxalin-5-yl)benzo[d]thiazol-6-yl)oxy)ethyl isothiazol-5-ylcarbamate]",8 nM
4,"COc1cnc2c(-c3nc4c(Cl)c(F)c(OC[C@H]5CNC(=O)O5)cc4s3)cc(C)cc2n1 [Example 622, (R)-5-(((4-chloro-5-fluoro-2-(2-methoxy-7-methylquinoxalin-5-yl)benzo[d]thiazol-6-yl)oxy)methyl)oxazolidin-2-one]",350 nM
5,"COc1cnc2c(-c3nc4c(Cl)c(F)c(OCc5coc(N)n5)cc4s3)cc(C)cc2n1 [Example 623, 4-(((4-chloro-5-fluoro-2-(2-methoxy-7-methylquinoxalin-5-yl)benzo[d]thiazol-6-yl)oxy)methyl)oxazol-2-amine]",320 nM
6,"CCOc1cnc2c(-c3nc4cc(F)c(O[C@@H](C)[C@@H](C)OC(=O)Nc5cnc(CCOP(=O)(O)O)nc5)cc4s3)cc(C)cc2n1 [Example 624, (2R,3S)-3-((2-(2-ethoxy-7-methylquinoxalin-5-yl)-5-fluorobenzo[d]thiazol-6-yl)oxy)butan-2-yl (2-(2-(phosphonooxy)ethyl)pyrimidin-5-yl)carbamate]",0.7 nM
7,"COCc1cnc2c(-c3nc4c(C)cc(OC)cc4s3)cc(Cl)cc2c1 [Example 625, 2-(6-chloro-3-(methoxymethyl)quinolin-8-yl)-6-methoxy-4-methylbenzo[d]thiazole]",1.8 nM
8,"COc1cnc2c(-c3nc4c(C)cc(OC)cc4s3)cc(Cl)cc2c1 [Example 626, 2-(6-chloro-3-methoxyquinolin-8-yl)-6-methoxy-4-methylbenzo[d]thiazole]",7.2 nM
9,"COc1cc(C(C)(C)O)c2nc(-c3cc(C)cc4nc(OC)cnc34)sc2c1 [Example 627, 2-(6-methoxy-2-(2-methoxy-7-methylquinoxalin-5-yl)benzo[d]thiazol-4-yl)propan-2-ol]",1400 nM
10,"COCc1cnc2c(-c3nc4c(C(O)C(C)(C)C)cc(OC)cc4s3)cc(C)cc2n1 (stereo not shown) [Example 628, 1-(6-methoxy-2-(2-(methoxymethyl)-7-methylquinoxalin-5-yl)benzo[d]thiazol-4-yl)-2,2-dimethylpropan-1-ol]",1.4 nM
11,"COc1cc(C(O)c2ccccc2)c2nc(-c3cc(C)cc4nc(OC)cnc34)sc2c1 (stereo not shown) [Example 629, (6-methoxy-2-(2-methoxy-7-methylquinoxalin-5-yl)benzo[d]thiazol-4-yl) (phenyl)methanol]",2.2 nM
12,"COc1cc(C(O)C(C)(C)C)c2nc(-c3cc(C)cc4nc(OC)cnc34)sc2c1 (stereo not shown) [Example 630, 1-(6-methoxy-2-(2-methoxy-7-methylquinoxalin-5-yl)benzo[d]thiazol-4-yl)-2,2-dimethylpropan-1-ol]",1.4 nM
13,"COc1cc(C(O)Cc2ccccc2)c2nc(-c3cc(C)cc4nc(OC)cnc34)sc2c1 (stereo not shown) [Example 631, 1-(6-methoxy-2-(2-methoxy-7-methylquinoxalin-5-yl)benzo[d]thiazol-4-yl)-2-phenylethanol]",5.3 nM
14,"COc1cnc2c(-c3nc4c(C(O)C(C)(C)C)c(F)c(OC)cc4s3)cc(C)cc2n1 (stereo not shown) [Example 632, 1-(5-fluoro-6-methoxy-2-(2-methoxy-7-methylquinoxalin-5-yl)benzo[d]thiazol-4-yl)-2,2-dimethylpropan-1-ol]",10 nM
15,"COc1cc(C(F)C(C)(C)C)c2nc(-c3cc(C)cc4nc(OC)cnc34)sc2c1 (stereo not shown) [Example 634, 4-(1-fluoro-2,2-dimethylpropyl)-6-methoxy-2-(2-methoxy-7-methylquinoxalin-5-yl)benzo[d]thiazole]",44 nM
16,"COCc1cnc2c(-c3nc4c(OCc5ccccc5)cc(OC)cc4s3)cc(C)cc2n1 [Example 635, 4-(benzyloxy)-6-methoxy-2-(2-(methoxymethyl)-7-methylquinoxalin-5-yl)benzo[d]thiazole]",10 nM

row,SMILES,IC50
1,"COc1cc(C(O)C(C)(C)C)c2nc(-c3cc(Cl)cc4nc(OC)cnc34)sc2c1 (stereo not shown) [Example 636, 1-(2-(7-chloro-2-methoxyquinoxalin-5-yl)-6-methoxybenzo[d]thiazol-4-yl)-2,2-dimethylpropan-1-ol]",3 nM
2,"COc1cc(C(O)C(C)(C)C)c2nc(-c3cc(C)cc4nc(OC)cnc34)sc2c1 (stereo not shown) [Example 637, 1-(6-methoxy-2-(2-methoxy-7-methylquinoxalin-5-yl)benzo[d]thiazol-4-yl)-2,2-dimethylpropan-1-ol]",2.1 nM
3,"COc1cnc2c(-c3nc4c(C(O)C(C)(C)C)cc(OCCOC(=O)Nc5cncc(C#N)c5)cc4s3)cc(C)cc2n1 (stereo not shown) [Example 638, 2-((4-(1-hydroxy-2,2-dimethylpropyl)-2-(2-methoxy-7-methylquinoxalin-5-yl)benzo[d]thiazol-6-yl)oxy)ethyl (5-cyanopyridin-3-yl)carbamate]",2.7 nM
4,"COc1cc(C(O)C(C)(C)C)c2nc(-c3cc(C#N)cc4nc(OC)cnc34)sc2c1 (stereo not shown) [Example 639, 8-(4-(1-hydroxy-2,2-dimethylpropyl)-6-methoxybenzo[d]thiazol-2-yl)-3-methoxyquinoxaline-6-carbonitrile]",1.4 nM
5,"CCOc1cc(C(O)C(C)(C)C)c2nc(-c3cc(C)cc4nc(OC)cnc34)sc2c1 (stereo not shown) [Example 640, 1-(6-ethoxy-2-(2-methoxy-7-methylquinoxalin-5-yl)benzo[d]thiazol-4-yl)-2,2-dimethylpropan-1-ol]",8 nM
6,"COc1cc(CCO)c2nc(-c3cc(C)cc4nc(OC)cnc34)sc2c1 [Example 641, 2-(6-methoxy-2-(2-methoxy-7-methylquinoxalin-5-yl)benzo[d]thiazol-4-yl)ethanol]",250 nM
7,"COc1cc(C(O)c2cccc(C(F)(F)F)c2)c2nc(-c3cc(C)cc4nc(OC)cnc34)sc2c1 (stereo not shown) [Example 642, (6-methoxy-2-(2-methoxy-7-methylquinoxalin-5-yl)benzo[d]thiazol-4-yl)(3-(trifluoromethyl)phenyl)methanol]",4.6 nM
8,"COc1cc(C(O)c2ccccc2C(C)C)c2nc(-c3cc(C)cc4nc(OC)cnc34)sc2c1 (stereo not shown) [Example 643, (2-isopropylphenyl)(6-methoxy-2-(2-methoxy-7-methylquinoxalin-5-yl)benzo[d]thiazol-4-yl)methanol]",5.3 nM
9,"CCOC(=O)C1(C(O)c2cc(OC)cc3sc(-c4cc(C)cc5nc(OC)cnc45)nc23)CCC1 (stereo not shown) [Example 644, Ethyl 1-(hydroxy(6-methoxy-2-(2-methoxy-7-methylquinoxalin-5-yl)benzo[d]thiazol-4-yl)methyl)cyclobutanecarboxylate]",21 nM
10,"COc1cnc2c(-c3nc4cc(F)c(O[C@@H](C)[C@@H](C)OC(=O)Nc5cnc(C)nc5)cc4s3)cc(Cl)cc2c1 [Example 645, (2R,3S)-3-((2-(6-chloro-3-methoxyquinolin-8-yl)-5-fluorobenzo[d]thiazol-6-yl)oxy)butan-2-yl (2-methylpyrimidin-5-yl)carbamate]",4.9 nM
11,"COc1cc(C(O)C2(CO)CCC2)c2nc(-c3cc(C)cc4nc(OC)cnc34)sc2c1 (stereo not shown) [Example 646, (1-(hydroxymethyl)cyclobutyl)(6-methoxy-2-(2-methoxy-7-methylquinoxalin-5-yl)benzo[d]thiazol-4-yl)methanol]",3.8 nM
12,"CCc1cnc2c(-c3nc4cc(F)c(O[C@@H](C)[C@@H](C)OC(=O)Nc5cnc(C)nc5)cc4s3)cc(Cl)cc2c1 [Example 647, (2R,3S)-3-((2-(6-chloro-3-ethylquinolin-8-yl)-5-fluorobenzo[d]thiazol-6-yl)oxy)butan-2-yl(2-methylpyrimidin-5-yl)carbamate]",19 nM
13,"COc1cnc2c(-c3nc4cc(F)c(O[C@@H](C)[C@@H](C)OC(=O)Nc5cnc(C)nc5)cc4s3)cc(C)cc2c1 [Example 648, (2R,3S)-3-((5-fluoro-2-(3-methoxy-6-methylquinolin-8-yl)benzo[d]thiazol-6-yl)oxy)butan-2-yl (2-methylpyrimidin-5-yl)carbamate]",3 nM
14,"CCOc1cnc2c(-c3nc4cc(F)c(O[C@@H](C)[C@@H](C)OC(=O)Nc5cnc(C)nc5)cc4s3)cc(Cl)cc2c1 [Example 649, (2R,3S)-3-((2-(6-chloro-3-ethoxyquinolin-8-yl)-5-fluorobenzo[d]thiazol-6-yl)oxy)butan-2-yl (2-methylpyrimidin-5-yl)carbamate]",7.4 nM
15,"Cc1ncc(NC(=O)O[C@H](C)[C@H](C)Oc2cc3sc(-c4cc(Cl)cc5cc(OC(F)F)cnc45)nc3cc2F)cn1 [Example 650, (2R,3S)-3-((2-(6-chloro-3-(difluoromethoxy)quinolin-8-yl)-5-fluorobenzo[d]thiazol-6-yl)oxy)butan-2-yl (2-methylpyrimidin-5-yl)carbamate]",5.6 nM
